Experimental data taken from patent publication US11447504B2, “Macrocyclic chlorine substituted indole derivatives” (Bayer Aktiengesellschaft, priority 2017, dated 2022).
Structures can show the parent of a compound that is named as a salt. Where two headings read alike, the source gives them in different places.

What was measured:
SUDHL5 [1] = experiment: Induction of caspase-3/7 activity (Assay 4), SUDHL5; type: cell-based; conditions: SUDHL5 cells
Summary of the method: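 DLBCL cells treated with compounds for 3 hours at 37° C. Caspase-3/7 activity measured by Caspase-Glo 3/7 luminescence, with medium-only background subtracted.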

SUDHL10 [2] = experiment: Induction of caspase-3/7 activity (Assay 4), SUDHL10; type: cell-based; conditions: SUDHL10 cells
Summary of the method: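 Luminescent Caspase-Glo 3/7 read-out after a 3 h, 37 °C compound exposure of the DLBCL line SUDHL10. Values are background-corrected using medium-only wells.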

SUDHL5 [3] = experiment: Antiproliferation assay 7, SUDHL5; type: cell-based; conditions: SUDHL5 cells, CellTiter-Glo, read-out: Antiproli SUDHL5 IC50 (median)
Summary of the method: (§1)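 Proliferation over 72 h at 37° C was assessed by luminescent cell viability reagent, referenced to a day 0 plate.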

MV-4-11 = experiment: Antiproliferation assay 7, MV-4-11; type: cell-based; conditions: MV-4-11 cells, CellTiter-Glo, read-out: Antiproli MV-4-11 IC50 median
Method: (§2) Assessment of the Anti-Proliferative Effect of Compounds in Different Cell Lines
(§3) The impact of compounds on the proliferation of different cell lines was assessed using the CellTiter-Glo® Luminescent Cell Viability reagent from Promega (G7573).
(§4) In parallel, cells were plated in a reference (day 0) plate for time zero determination.
(§5) Rim wells were excluded. The cells were incubated for 72 hours in a humidified incubator at 37° C. The day 0 plate was measured by adding 30 μL/well of CTG solution (CellTiter-Glo® Luminescent Cell Viability reagent, Promega G7573) to time zero wells in the reference plate followed by a 10 minutes incubation and luminescence reading at 0.1 ms. using the PHERAstar FS microplate reader (BMG Labtech).
(§6) After 72 hours incubation, the treated plates were measured in the same way as the day 0 plate mentioned above.

AMO-1 = experiment: Antiproliferation assay 7, AMO-1; type: cell-based; conditions: AMO-1 cells, CellTiter-Glo, read-out: Antiproli AMO-1 IC50 median
Summary of the method: as §1

HMC-1-8 = experiment: Antiproliferation assay 7, HMC-1-8; type: cell-based; conditions: 72 h, HMC-1-8 cells, CellTiter-Glo, read-out: Antiproli HMC-1-8 IC50 median
Method: as §2, §3, §4, §5, §6

SUDHL5 [4] = experiment: Induction of cytotoxicity (Assay 6), SUDHL5
Method: Assay 6 Induction of Cytotoxicity Upon Treatment of Cells with Selected Compounds
Therefore, cytotoxicity assays were run in parallel in SUDHL5 and SUDHL10 cells.
The different cell lines were plated in culture medium (RPMI 1640 [GIBCO #22400-089]supplemented with 10% Fetal Bovine Serum) at a density of 3,300 cells in 30 μL/well in a sterile, solid black, flat bottom, polystyrene, TC-treated 384-well microplate (Corning #3571) using Multidrop Combi Reagent Dispenser. As a control, medium without cells was also added to the plate. Cells were incubated in a humidified incubator at 37° C. overnight. […] Rim wells were excluded. The cells were incubated for 5 hours in a humidified incubator at 37° C. After this incubation, 30 μL of CellTiter-Glo® Luminescent Cell Viability reagent (Promega, G7573) was added to each well using the Multidrop Combi Reagent Dispenser, followed by 15 minutes incubation on a shaker at room temperature. Finally, luminescence was read at 0.1 ms, with a gain of 3000 using the PHERAstar FS microplate reader (BMG Labtech).

SUDHL10 [5] = experiment: Induction of cytotoxicity (Assay 6), SUDHL10
MCL-1 = MCL-1 (Homo sapiens (Human), UniProt Q07820, K194A/K197A/R201A); experiment: Protein-protein interaction assay MCL-1/Noxa BH3 peptide (MCL-1 Assay, TR-FRET); type: binding; conditions: read-out: MCL-1 Assay IC50 (median)
Method: The dose-dependent inhibition by the compounds described in this invention of the interaction between MCL-1 and the BH3 domain of Noxa (both human) was determined using a steady state binding competition assay with time-resolved fluorescence energy transfer (TR-FRET) readout. […] The MBP-MCL-1 was purchased from Beryllium (Bedford, Mass., USA). The expression and purification of this protein construct has been described elsewhere (DOI:10.1371/journal.pone.0125010). The Noxa BH3-derived peptide can be obtained from e.g. Biosyntan (Berlin, Germany).
For that, 100-fold concentrated DMSO solutions were prepared by serial dilutions (1:3.4) of a 2 mM stock solution in a clear, 384-well microtiter plate (Greiner Bio-One, Frickenhausen, Germany). From there, 50 nl were transferred in a dark test plate (Greiner Bio-One, Frickenhausen, Germany). […] This was followed by a 10-minute incubation step at 22° C. for pre-equilibration of the putative complex between MBP-MCL-1 and the compounds.
The mixture was incubated in the dark for one hour at 22° C. and then overnight at 4° C.
The resulting data (ratio) were normalized, taking 0% inhibition as the mean value of control measurements (usually 32 data points) where all reagents were included. In this case 50 nl DMSO were used instead of compounds. […] IC50 values were determined by regression analysis based on a 4 parameter equation (minimum, maximum, IC50, Hill; Y=Max+(Min−Max)/(1+(X/IC50)^Hill) using the Screener Software (Genedata).

[6] = 3 hours, Caspase-Glo 3/7, read-out: Caspase SUDHL5 EC50 (median)
[7] = 3 hours, Caspase-Glo 3/7, read-out: Caspase SUDHL10 EC50 (median)
[8] = read-out: Cytotox SUDHL5 IC50 (median), SUDHL5 cells, 5 hours, CellTiter-Glo
[9] = read-out: Cytotox SUDHL10 IC50 (median), SUDHL10 cells, 5 hours, CellTiter-Glo

Sequence of MCL-1 (Q07820 whole entry K194A/K197A/R201A, looked up, the tested form may be a part): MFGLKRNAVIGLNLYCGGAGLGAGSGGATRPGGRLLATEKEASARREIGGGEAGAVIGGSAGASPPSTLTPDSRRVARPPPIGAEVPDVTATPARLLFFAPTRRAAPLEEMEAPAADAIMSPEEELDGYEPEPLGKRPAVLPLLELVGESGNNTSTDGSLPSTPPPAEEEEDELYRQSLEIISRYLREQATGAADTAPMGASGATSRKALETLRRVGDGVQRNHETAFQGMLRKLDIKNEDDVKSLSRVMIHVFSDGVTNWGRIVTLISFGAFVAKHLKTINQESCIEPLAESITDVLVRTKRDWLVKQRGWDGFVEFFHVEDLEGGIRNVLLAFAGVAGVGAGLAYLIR

Compound	EC50 (SUDHL5 [1]; [6]) [nM]	EC50 (SUDHL10 [2]; [7]) [nM]	IC50 (SUDHL5 [3]; 72 hours) [nM]	IC50 (MV-4-11; 72 hours) [nM]	IC50 (MCL-1) [nM]	IC50 (AMO-1; 72 hours) [nM]	IC50 (HMC-1-8) [nM]	IC50 (SUDHL5 [4]; [8]) [nM]	IC50 (SUDHL10 [5]; [9]) [nM]	EC50 (SUDHL5 [1]; Homo sapiens, SU-DHL-5, 3 h, Caspase-Glo 3/7, read-out: Caspase SUDHL5 EC50 (median)) [nM]	EC50 (SUDHL10 [2]; Homo sapiens, SU-DHL10, 3 h, Caspase-Glo 3/7, read-out: Caspase SUDHL10 EC50 (median)) [nM]	IC50 (SUDHL5 [3]; Homo sapiens, SU-DHL-5, 72 h) [nM]	IC50 (MV-4-11; Homo sapiens, MV4-11, 72 h) [nM]	IC50 (AMO-1; Homo sapiens, AMO1, 72 h) [nM]	IC50 (SUDHL5 [4]; Homo sapiens, SU-DHL-5, 5 h, read-out: Cytotox SUDHL5 IC50 (median), SUDHL5 cells, 5 hours, CellTiter-Glo) [nM]	IC50 (SUDHL10 [5]; Homo sapiens, SU-DHL10, 5 h, read-out: Cytotox SUDHL10 IC50 (median), SUDHL10 cells, 5 hours, CellTiter-Glo) [nM]
CCc1c2c(nn1C)CN(C)CCCCn1c(C(=O)O)c(CCCOc3cccc4cc(F)ccc34)c3ccc(Cl)c-2c31 (single isomer, unassigned; enantiomer 1) [Example 6, 4-chloro-3-ethyl-7-{3-[(6-fluoronaphthalen-1-yl)oxy]propyl}-2,14-dimethyl-10,11,12,13,14,15-hexahydro-2H-pyrazolo[3′,4′:8,9][1,6]diazacycloundecino[10,11,1-hi]indole-8-carboxylic Acid (Enantiomer 1)]	130	340	230	79.4	–	369	1210	190	350	–	–	–	–	–	–	–
Cc1c2c(nn1C)COCCCCn1c(C(=O)O)c(CCCOc3cccc4cc(F)ccc34)c3ccc(Cl)c-2c31 (single isomer, unassigned; enantiomer 1) [Example 16, (−)-4-chloro-7-{3-[(6-fluoronaphthalen-1-yl)oxy]propyl}-2,3-dimethyl-2,10,11,12,13,15-hexahydropyrazolo[4′,3′:9,10][1,6]oxazacycloundecino[8,7,6-hi]indole-8-carboxylic Acid (Enantiomer 1)]	–	–	–	–	–	–	1250	–	–	150	380	210	524	519	220	660
CCc1c2c(nn1C)CN(C)CCCCn1c(C(=O)O)c(CCCOc3cccc4ccccc34)c3ccc(Cl)c-2c31 (single isomer, unassigned; enantiomer 1) [Example 23, 4-chloro-3-ethyl-2,14-dimethyl-7-[3-(naphthalen-1-yloxy)propyl]-10,11,12,13,14,15-hexahydro-2H-pyrazolo[3′,4′:8,9][1,6]diazacycloundecino[10,11,1-hi]indole-8-carboxylic Acid (Enantiomer 1)]	92	–	–	387	–	–	5160	140	310	–	–	–	–	613	–	–
CCc1nn(C)c2c1-c1c(Cl)ccc3c(CCCOc4cccc5cc(F)ccc45)c(C(=O)O)n(c13)CCCCOC2 (single isomer, unassigned; enantiomer 1) [Example 34, (+)-4-chloro-3-ethyl-7-{3-[(6-fluoronaphthalen-1-yl)oxy]propyl}-1-methyl-1,10,11,12,13,15-hexahydropyrazolo[4′,3′:9,10][1,6]oxazacycloundecino[8,7,6-hi]indole-8-carboxylic Acid (Enantiomer 1)]	380	–	620	1260	–	1410	2030	530	–	–	–	–	–	–	–	–
CCc1c2c(nn1C)COCCCCn1c(C(=O)O)c(CCCOc3cccc4cc(F)ccc34)c3ccc(Cl)c-2c31 (single isomer, unassigned; enantiomer 1) [Example 37, (+)-4-chloro-3-ethyl-7-{3-[(6-fluoronaphthalen-1-yl)oxy]propyl}-2-methyl-2,10,11,12,13,15-hexahydropyrazolo[4′,3′:9,10][1,6]oxazacycloundecino[8,7,6-hi]indole-8-carboxylic acid-N-ethylethanamine Salt (Enantiomer 1)]	170	–	280	377	–	363	1130	200	–	–	–	–	–	–	–	–
CCc1nn(C)c2c1-c1c(Cl)ccc3c(CCCOc4cccc5cc(F)ccc45)c(C(=O)O)n(c13)CCCCN(C)C2 (single isomer, unassigned; enantiomer 1) [Example 40, 4-chloro-3-ethyl-7-{3-[(6-fluoronaphthalen-1-yl)oxy]propyl}-1,14-dimethyl-10,11,12,13,14,15-hexahydro-1H-pyrazolo[3′,4′:8,9][1,6]diazacycloundecino[10,11,1-hi]indole-8-carboxylic Acid (Enantiomer 1)]	140	310	150	95.5	–	539	695	110	290	–	–	–	–	–	–	–

Second part, led by results:

EC50 (SUDHL5 [1]; [6]) [nM]	EC50 (SUDHL10 [2]; [7]) [nM]	IC50 (SUDHL5 [3]; 72 hours) [nM]	IC50 (MV-4-11; 72 hours) [nM]	IC50 (MCL-1) [nM]	Compound	IC50 (AMO-1; 72 hours) [nM]	IC50 (HMC-1-8) [nM]	IC50 (SUDHL5 [4]; [8]) [nM]	IC50 (SUDHL10 [5]; [9]) [nM]	EC50 (SUDHL5 [1]; Homo sapiens, SU-DHL-5, 3 h, Caspase-Glo 3/7, read-out: Caspase SUDHL5 EC50 (median)) [nM]	EC50 (SUDHL10 [2]; Homo sapiens, SU-DHL10, 3 h, Caspase-Glo 3/7, read-out: Caspase SUDHL10 EC50 (median)) [nM]	IC50 (SUDHL5 [3]; Homo sapiens, SU-DHL-5, 72 h) [nM]	IC50 (MV-4-11; Homo sapiens, MV4-11, 72 h) [nM]	IC50 (AMO-1; Homo sapiens, AMO1, 72 h) [nM]	IC50 (SUDHL5 [4]; Homo sapiens, SU-DHL-5, 5 h, read-out: Cytotox SUDHL5 IC50 (median), SUDHL5 cells, 5 hours, CellTiter-Glo) [nM]	IC50 (SUDHL10 [5]; Homo sapiens, SU-DHL10, 5 h, read-out: Cytotox SUDHL10 IC50 (median), SUDHL10 cells, 5 hours, CellTiter-Glo) [nM]
620	1600	950	1380	–	CCc1nn(CCN2CCOCC2)c2c1-c1c(Cl)ccc3c(CCCOc4cccc5ccccc45)c(C(=O)O)n(c13)C/C=C\CN(C)C2 (single isomer, unassigned; enantiomer 1) [Example 43, (11Z)-4-chloro-3-ethyl-14-methyl-1-[2-(morpholin-4-yl)ethyl]-7-{3-[(naphthalen-1-yl)oxy]propyl}-10,13,14,15-tetrahydro-1H-pyrazolo[3′,4′:8,9][1,6]diazacycloundecino[10,11,1-hi]indole-8-carboxylic Acid-Ammonia Salt (Enantiomer 1)]	1130	2060	700	1200	–	–	–	–	–	–	–
160	400	200	490	–	CCc1nn(CCN2CCOCC2)c2c1-c1c(Cl)ccc3c(CCCOc4cccc5ccccc45)c(C(=O)O)n(c13)CCCCN(C)C2 (single isomer, unassigned; enantiomer 1) [Example 46, 4-chloro-3-ethyl-14-methyl-1-[2-(morpholin-4-yl)ethyl]-7-{3-[(naphthalen-1-yl)oxy]propyl}-10,11,12,13,14,15-hexahydro-1H-pyrazolo[3′,4′:8,9][1,6]diazacycloundecino[10,11,1-hi]indole-8-carboxylic Acid (Enantiomer 1)]	180	819	180	300	–	–	–	–	–	–	–
550	3500	–	–	1.7	Cc1c2c(nn1C)COCC1CC1Cn1c(C(=O)O)c(CCCOc3cccc4ccccc34)c3ccc(Cl)c-2c31 (single isomer, unassigned; stereoisomer 2) [Example 66, (9aR,10aS or 9aS, 10aR)-3-chloro-4,5-dimethyl-14-{3-[(naphthalen-1-yl)oxy]propyl}-5,7,9a, 10,10a, 11-hexahydro-9H-cyclopropa[3,4]pyrazolo[4′,3′:9,10][1,6]oxazacycloundecino-[8,7,6-hi]indole-13-carboxylic Acid—Stereoisomer 2]	1520	–	910	1400	–	–	–	–	–	–	–
